According to publication PMC4154066 (Chemical research in toxicology, 2013):
Like-named read-outs stand apart in the source and are kept apart here.

Tests used:
HepG2 cells [1] = assay: cells; format: cell-based, Human; conditions: for Compound potency (IC50) LDH Release 5 h: HepG2, 5 h treatment
HepG2 cells [2] = assay: Oxygen consumption rate; format: cell-based, Human; conditions: for Relative percentage OCR 30 Sec: HepG2, 30 sec after compound at its MMP IC50; for Relative percentage OCR 30 Sec / Relative percentage OCR 1 h: basal OCR = 100%, mean ± SD; for Relative percentage OCR 1 h: HepG2, 1 h after compound at its MMP IC50; for Effect on OCR / FCCP-uncoupled OCR (in words): HepG2, compound at its MMP IC50, 30 sec and 1 h, then FCCP
caspase 9 = conditions: HepG2, 5 h; cited from earlier work
caspase 3/7 = conditions: HepG2, 16 h; cited from earlier work
[3] = system: mitochondrial membrane potential in HepG2 cells; assay: qHTS MMP assay, primary screen; format: cell-based, Human; conditions: for IC50: Homo sapiens
HepG2 cells [4] = conditions: HepG2, 40 h; cited from earlier work
[5] = system: mitochondrial membrane potential in HepG2 cells; assay: MMP assay, powder compound confirmation, fluorescence plate reader; format: cell-based, Human
[6] = read-out: Compound potency (IC50) LDH Release 1 h, HepG2, 1 h treatment, mean ± SD, 3 independent experiments
[7] = Homo sapiens, HepG2, 1 h, read-out: Compound potency (IC50) LDH Release 1 h
[8] = Homo sapiens, HepG2, 5 h, read-out: Compound potency (IC50) LDH Release 5 h
[9] = HepG2, 1 h treatment, mean ± SD, 3 independent experiments
[10] = mean ± SD, 3 independent experiments

SMILES	Relative percentage OCR 30 Sec (HepG2 cells [2]) [%]	Relative percentage OCR 1 h (HepG2 cells [2]) [%]	Effect on OCR / FCCP-uncoupled OCR (in words) (HepG2 cells [2])	Compound potency (IC50) LDH Release 5 h (HepG2 cells [1]; [10])	other results
CC(=O)[O][Hg][c]1ccccc1 [Phenyl mercuric acetate]	67.6 ± 5.55	51.54 ± 0.26	depressed both basal and FCCP uncoupled rates	–	IC50 (HepG2 cells [1]; [6]): 68.1 ± 4.44 µM
O=C1C2(Cl)C3(Cl)C4(Cl)C(Cl)(Cl)C5(Cl)C3(Cl)C1(Cl)C5(Cl)C24Cl (stereo not drawn) [Kepone]	139.53 ± 5.8	140.71 ± 0.96	–	–	IC50 (HepG2 cells [1]; [7]): 49.1 ± 12.3 µM; IC50 (HepG2 cells [1]; [8]): 58.4 ± 3.95 µM
COC(=O)Nc1cccc(OC(=O)Nc2cccc(C)c2)c1 [Phenmedipham]	105.47 ± 2.71	130.87 ± 1.18	–	Inconclusive	Compound potency (IC50) LDH Release 1 h (HepG2 cells [1]; [9]): Inactive; Potency for cytotoxicity (LDH) compared with MMP decrease, 5 h (HepG2 cells [1]; HepG2, 5 h): more potent for cytotoxicity than for MMP disruption
CCCCCCCC[N+](CCCCCCCC)(CCCCCCCC)CCCCCCCC.[Br-] [tetra-N-Octylammonium bromide]	122.56 ± 40.61	215.53 ± 1.14	–	–	IC50 (HepG2 cells [1]; [6]): 35.4 ± 12.6 µM
Cc1cc(O)c(C(C)(C)C)cc1Sc1cc(C(C)(C)C)c(O)cc1C [4,4-Thiobis(6-t-butyl-m-cresol)]	106.32 ± 4	127.15 ± 1.52	–	Inconclusive	Compound potency (IC50) LDH Release 1 h (HepG2 cells [1]; [9]): Inactive
C[C@@H]1CC[C@@]2(OC1)O[C@H]1[C@@H](O)[C@H]3[C@@H]4CC[C@H]5C[C@@H](O[C@@H]6O[C@H](CO)[C@H](O[C@@H]7O[C@H](CO)[C@@H](O)[C@H](O[C@@H]8OC[C@@H](O)[C@H](O)[C@H]8O)[C@H]7O[C@@H]7O[C@H](CO)[C@H](O)[C@H](O[C@@H]8O[C@H](CO)[C@@H](O)[C@H](O)[C@H]8O)[C@H]7O)[C@H](O)[C@H]6O)[C@H](O)C[C@]5(C)[C@H]4CC[C@]3(C)[C@H]1[C@@H]2C [Digitonin]	57.25 ± 6.4	54.89 ± 0.48	depressed both basal and FCCP uncoupled rates	–	IC50 (HepG2 cells [1]; [7]): 45.1 ± 8.43 µM; IC50 (HepG2 cells [1]; [8]): 45.1 ± 8.43 µM
O=c1c(O)c(-c2ccc(O)cc2)oc2cc(O)cc(O)c12 [Kaempferol]	118.63 ± 4.29	138.85 ± 1.28	acted as an uncoupler	Inconclusive	Compound potency (IC50) LDH Release 1 h (HepG2 cells [1]; [9]): Inactive
CN(C)c1ccc(C(=C2C=CC(=[N+](C)C)C=C2)c2ccc(N(C)C)cc2)cc1 [Hexamethyl-p-rosaniline chloride]	132.56 ± 3.88	105.01 ± 1.65	immediate uncoupling	cytotoxic	activation of caspase 9 (caspase 9): seems to activate caspase 9; induction of caspase 3/7 (caspase 3/7): induced caspase 3/7; Compound potency (IC50) LDH Release 1 h (HepG2 cells [1]; [9]): Inconclusive; IC50 (HepG2 cells [1]; [8]): 56.1 µM
N#CC(C#N)=NNc1ccc(OC(F)(F)F)cc1 [FCCP, Carbonyl cyanide 4-(trifluoromethoxy)phenylhydrazone, reference compound]	–	–	–	–	IC50 ([3]; HepG2, 1 h, read-out: mean IC50 of positive control, 1 h): 0.81 ± 0.2 µM; IC50 ([3]; HepG2, 5 h, read-out: mean IC50 of positive control, 5 h): 1.28 ± 0.32 µM
Cc1cc(O)c2c(c1)C(=O)c1cc(O)cc(O)c1C2=O [Emodin]	235.59 ± 56.54	210.48 ± 1.83	acted as uncouplers	–	cytotoxicity at 40 h (HepG2 cells [4]): cytotoxic
O=c1cc(-c2ccc(O)cc2)oc2cc(O)cc(O)c12 [Apigenin]	99.69 ± 1.13	107.51 ± 0.16	did not affect the OCR or the FCCP-uncoupled OCR	–	cytotoxicity at 40 h (HepG2 cells [4]): the only exception
CN(C)c1ccc(C(=C2C=CC(=[N+](C)C)C=C2)c2ccccc2)cc1.CN(C)c1ccc(C(=C2C=CC(=[N+](C)C)C=C2)c2ccccc2)cc1.O=C(O)C(=O)O.O=C([O-])C(=O)O.O=C([O-])C(=O)O [Malachite green oxalate]	163.81 ± 17.5	97.14 ± 3.09	immediate uncoupling	cytotoxic	Primary screen outcome (MMP decrease) 1 h [3]: positive; Primary screen outcome (MMP decrease) 5 h [3]: positive; induction of caspase 3/7 (caspase 3/7): induced caspase 3/7; Compound potency (IC50) LDH Release 1 h (HepG2 cells [1]; [9]): Inactive
COc1cc(C2Oc3cc([C@H]4Oc5cc(O)cc(O)c5C(=O)[C@@H]4O)ccc3OC2CO)ccc1O (stereo partly drawn) [Silibinin]	92.67 ± 0.69	95.66 ± 0.46	significantly suppressed the FCCP uncoupled rates	–	Compound potency (IC50) Fluorescence readout 5 h ([5]; HepG2, powder compound confirmation, 5 h, mean ± SD, 4 independent experiments): weakly active; Emax ([5]; Homo sapiens, HepG2, 5 h, read-out: efficacy (maximal response)): 38.1%
Cl.N=C1C=CC(=C(c2ccc(N)cc2)c2ccc(N)cc2)C=C1 [Basic red 9 (p-Rosaniline HCl), p-Rosaniline HCl]	−9.78 ± 16.86	35.74 ± 2.42	–	negative	induction of caspase 3/7 (caspase 3/7): negative
O=C1c2c(O)ccc([N+](=O)[O-])c2C(=O)c2c([N+](=O)[O-])ccc(O)c21 [1,8-Dihydroxy-4,5-dinitroanthraquinone]	144.03 ± 7.3	150.09 ± 1.27	acted as uncouplers	–	cytotoxicity at 40 h (HepG2 cells [4]): cytotoxic
C[C@H]1CCCC(=O)CCC/C=C/c2cc(O)cc(O)c2C(=O)O1 [Zearalenone]	77.68 ± 2.39	109.62 ± 0.57	depressed both basal and FCCP uncoupled rates	–	–
Oc1ccc(Cl)cc1Sc1cc(Cl)ccc1O [2,2'-Thiobis(4-chlorophenol)]	273.19 ± 70.36	191.27 ± 0.92	–	–	–
O=C(Nc1ccccc1)Nc1ccccc1 [Diphenylurea]	97.02 ± 4.18	143.97 ± 1.85	–	–	–
O=C1C2CC=CCC2C(=O)N1SC(Cl)(Cl)Cl (stereo not drawn) [Captan]	110.37 ± 7.97	128.41 ± 0.77	–	–	–
